Data published in patent publication US11672792B2, “Topical formulations comprising montelukast and combinations with mussel adhesive proteins” (ENLITISA (SHANGHAI) PHARMACEUTICAL CO., LTD, priority 2017, dated 2023).
“And” between values parts separate entries of the source, which are not always exact repeats. Equal values may be shown once.

Test system: full thickness skin wounds
Test: Acute Wound Model (Example 6)
Assay type: in vivo, C57BL/6 mice
Details: for Hyp content (μg/mg tissue weight), single animals / Hyp content, Mean (n = 4): wound tissue
Experimental: 6-8 weeks old male C57BL/6 mice were supplied by Changzhou Cvens Experimental Animal Co. Ltd. Prior to any experiments being conducted, mice were housed under standardized conditions (at a constant temperature or 22±2° C., with alternating 12 hour periods of light and darkness), and were fed on a standard mouse diet with water, for about a week. […] The hair on the back was shaved by a baby hair shaver and depilated with cream. […] EMS skin biopsy punch (Electron Microscopy Sciences, P.O. […] Full thickness skin was removed and the depth reached the fascia. The wounds left open without suture. […] The model group was given same amount of normal saline. Recombinant Human Epidermal Growth Factor (rhEGF, Shanghai Haohai Biological Technology Co. Ltd, Shanghai, China) was purchased and prepared according to the manufacturer's instructions. Lyophilized rhEGF powder (100000 IU/vial) was dissolved in 20 mL of normal saline to make a solution with a 5000 IU/mL concentration. […] MedChemExpress, MCE China, Shanghai, China) was obtained in a powder form and was dissolved in ultrapure water to obtain solutions with concentrations as described in Table 22 (L, M and H indicate low, medium and high montelukast doses, respectively) Wounds were wrapped up with transparent dresser after drug administration. Photographs were taken for each wound every other day from Day 0. Photos were scanned into a computer, and wound areas calculated using ImageJ image analysis software (National Institutes of Health, […]). The unhealed wound area was expressed as a percentage of the original wound area: At/A0×100%, where A0 and At refer to the initial area at Day 0 and the wound area at the date of measurement (time t), respectively. […] Half of the tissue was preserved in 10% neutral buffered formalin (Nanchang […] Experimental Equipment Co., Ltd., Nanchang, […] Provence, China), and analyzed by histological embedding in paraffin wax, sectioning and staining. HE and Masson stained paraffin sections were analyzed under an optical microscope. Skin regeneration, fibroblastic proliferation, collagen regeneration scores and inflammation scores were estimated. The rest of the samples were stored at -80° C. for further analysis. […] The supernatant was collected, and the extracted protein was used for ELISA analysis using standard ELISA test kits and an ELISA reader (SH-1000 Hitachi, Japan). […] (Beijing, China).

With CC(C)(O)c1ccccc1CC[C@@H](SCC1(CC(=O)O)CC1)c1cccc(/C=C/c2ccc3ccc(Cl)cc3n2)c1 [Mon, Montelukast sodium] the “remaining wound area versus the initial wound” value (Day 2, Mon H 200 μg/wound) was 76.11 ± 6.40%, the “remaining wound area versus the initial wound” value (Day 2, Mon L 50 μg/wound once daily topically) was 78.41 ± 9.51% and the “remaining wound area versus the initial wound” value (Day 2, Mon M 100 μg/wound) was 79.97 ± 11.79%. For the same compound, the “improvement rate (wound healing)” value (Day 4, Mon H 200 μg/wound) was “about 39%”, the “remaining wound area versus the initial wound” value (Day 4, Mon H 200 μg/wound) was 48.60 ± 6.49% and the “remaining wound area versus the initial wound” value (Day 4, Mon L 50 μg/wound) was 57.59 ± 11.54%. The “remaining wound area versus the initial wound” value (Day 4, Mon M 100 μg/wound) was 55.09 ± 8.83%, the “remaining wound area versus the initial wound” value (Day 6, Mon H 200 μg/wound) was 29.13 ± 6.16% and the “remaining wound area versus the initial wound” value (Day 6, Mon L 50 μg/wound) was 27.53 ± 3.76%. The “remaining wound area versus the initial wound” value (Day 6, Mon M 100 μg/wound) was 28.51 ± 1.03%, the “remaining wound area versus the initial wound” value (Day 8, Mon H 200 μg/wound) was 14.59 ± 3.04% and the “remaining wound area versus the initial wound” value (Day 8, Mon L 50 μg/wound) was 14.08 ± 2.85%. For the same compound, the “remaining wound area versus the initial wound” value (Day 8, Mon M 100 μg/wound) was 13.87 ± 3.51%, the “remaining wound area versus the initial wound” value (Day 12, Mon H 200 μg/wound) was 2.48 ± 3.43% and the “remaining wound area versus the initial wound” value (Day 12, Mon L 50 μg/wound) was 1.15 ± 2.29%. The “remaining wound area versus the initial wound” value (Day 12, Mon M 100 μg/wound) was 2.15 ± 3.73%, the “Hyp content (μg/mg tissue weight), single animals” value (shortened to “Hyp content (μg/mg tissue weight)”) (Mon H 200 μg/wound) was 4.62 μg/mg tissue weight and 5.83 μg/mg tissue weight and 3.99 μg/mg tissue weight and 4.64 μg/mg tissue weight and the “Hyp content, Mean (n = 4)” value (Mon H 200 μg/wound) was 4.77 μg/mg tissue weight. For the same compound, the “Hyp content (μg/mg tissue weight)” value (Mon L 50 μg/wound) was 4.65 μg/mg tissue weight and 4.41 μg/mg tissue weight and 6.71 μg/mg tissue weight and 6.05 μg/mg tissue weight, the “Hyp content, Mean (n = 4)” value (Mon L 50 μg/wound) was 5.46 μg/mg tissue weight and the “Hyp content (μg/mg tissue weight)” value (Mon M 100 μg/wound) was 4.94 μg/mg tissue weight and 4.18 μg/mg tissue weight and 6.80 μg/mg tissue weight and 4.98 μg/mg tissue weight. The “Hyp content, Mean (n = 4)” value (Mon M 100 μg/wound) was 5.23 μg/mg tissue weight.
